# Measured values taken from the supplement of paper PMC10307832.
# How the values were obtained:
# Experiment in all cases: relative viability (nuclei count vs DMSO), 5 days (fraction); higher = more cells survive
# [1] = system: LOU-NH91
# Summary of the method: (§1)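 Each reported value is a median over duplicate plates. It expresses relative viability: treated-well nuclei count divided by vehicle-well nuclei count. Lung cancer cell lines in 1536-well plates were dosed by pin tool a day after seeding, alone with one drug or with a fixed anchor-drug dose plus five library-drug doses (not always all listed) in √10 steps, and nuclei were counted after 5 days.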
# [2] = system: NCI-H1355
# Summary of the method: as §1
# [3] = system: NCI-H838
# Summary of the method: as §1
# [4] = system: NCI-H358
# Summary of the method: as §1
# [5] = system: HCC-366
# Summary of the method: as §1
# [6] = system: CAL-12T
# Summary of the method: as §1
# [7] = system: NCI-H1755
# Summary of the method: as §1
# [8] = system: NCI-H460
# Summary of the method: as §1
# [9] = system: HCC-44
# Summary of the method: as §1
# [10] = system: NCI-H2085
# Summary of the method: as §1
# [11] = system: NCI-H1651
# Summary of the method: as §1
# [12] = system: NCI-H1975
# Summary of the method: as §1
# [13] = system: BEN
# Summary of the method: as §1
# [14] = system: LCLC-103H
# Summary of the method: as §1
# [15] = system: NCI-H1650
# Summary of the method: as §1
# [16] = system: NCI-H1437
# Summary of the method: as §1
# [17] = system: NCI-H1395
# Summary of the method: as §1
# [18] = system: NCI-H2342
# Summary of the method: as §1
# [19] = system: NCI-H1734
# Summary of the method: as §1
# [20] = system: HCC-15
# Summary of the method: as §1
# [21] = system: EKVX
# Summary of the method: as §1
# [22] = system: NCI-H441
# Summary of the method: as §1
# [23] = system: NCI-H2023
# Summary of the method: as §1
compound,measurement,setting,value
Clc1ccc(Nc2nnc(Cc3ccncc3)c3ccccc23)cc1 [Vatalanib] + O=C(c1cc(Cc2n[nH]c(=O)c3ccccc23)ccc1F)N1CCN(C(=O)C2CC2)CC1 [Olaparib] (partner 8 µM),relative viability,[1]; first compound 0.04 µM,0.912
same,relative viability,[1]; first compound 0.1265 µM,0.886
same,relative viability,[1]; first compound 0.4 µM,0.793
same,relative viability,[1]; first compound 1.265 µM,0.881
same,relative viability,[1]; first compound 4 µM,0.875
same,relative viability,[2]; first compound 0.04 µM,0.732
same,relative viability,[2]; first compound 0.1265 µM,0.79
same,relative viability,[2]; first compound 0.4 µM,0.809
same,relative viability,[2]; first compound 1.265 µM,0.699
same,relative viability,[2]; first compound 4 µM,0.706
same,relative viability,[3]; first compound 0.04 µM,0.774
same,relative viability,[3]; first compound 0.1265 µM,0.741
same,relative viability,[3]; first compound 0.4 µM,0.824
same,relative viability,[3]; first compound 1.265 µM,0.722
same,relative viability,[3]; first compound 4 µM,0.702
same,relative viability,[4]; first compound 0.04 µM,0.566
same,relative viability,[4]; first compound 0.1265 µM,0.548
same,relative viability,[4]; first compound 0.4 µM,0.639
same,relative viability,[4]; first compound 1.265 µM,0.769
same,relative viability,[4]; first compound 4 µM,0.562
same,relative viability,[5]; first compound 0.04 µM,0.337
same,relative viability,[5]; first compound 0.1265 µM,0.34
same,relative viability,[5]; first compound 0.4 µM,0.416
same,relative viability,[5]; first compound 1.265 µM,0.334
same,relative viability,[5]; first compound 4 µM,0.303
same,relative viability,[6]; first compound 0.04 µM,0.692
same,relative viability,[6]; first compound 0.1265 µM,0.645
same,relative viability,[6]; first compound 0.4 µM,0.773
same,relative viability,[6]; first compound 1.265 µM,0.697
same,relative viability,[6]; first compound 4 µM,0.672
same,relative viability,[7]; first compound 0.04 µM,0.773
same,relative viability,[7]; first compound 0.1265 µM,0.847
same,relative viability,[7]; first compound 0.4 µM,0.878
same,relative viability,[7]; first compound 1.265 µM,0.901
same,relative viability,[7]; first compound 4 µM,0.838
same,relative viability,[8]; first compound 0.04 µM,0.4
same,relative viability,[8]; first compound 0.1265 µM,0.44
same,relative viability,[8]; first compound 1.265 µM,0.494
same,relative viability,[8]; first compound 4 µM,0.377
same,relative viability,[9]; first compound 0.04 µM,1.05
same,relative viability,[9]; first compound 0.1265 µM,0.971
same,relative viability,[9]; first compound 0.4 µM,0.978
same,relative viability,[9]; first compound 1.265 µM,0.998
same,relative viability,[9]; first compound 4 µM,0.996
same,relative viability,[10]; first compound 0.04 µM,0.839
same,relative viability,[10]; first compound 0.1265 µM,0.81
same,relative viability,[10]; first compound 0.4 µM,0.812
same,relative viability,[10]; first compound 1.265 µM,0.795
same,relative viability,[10]; first compound 4 µM,0.727
same,relative viability,[11]; first compound 0.04 µM,0.19
same,relative viability,[11]; first compound 0.1265 µM,0.184
same,relative viability,[11]; first compound 0.4 µM,0.195
same,relative viability,[11]; first compound 1.265 µM,0.202
same,relative viability,[11]; first compound 4 µM,0.179
same,relative viability,[12]; first compound 0.04 µM,0.84
same,relative viability,[12]; first compound 0.1265 µM,0.727
same,relative viability,[12]; first compound 0.4 µM,0.729
same,relative viability,[12]; first compound 1.265 µM,0.709
same,relative viability,[12]; first compound 4 µM,0.695
same,relative viability,[13]; first compound 0.04 µM,1.03
same,relative viability,[13]; first compound 0.1265 µM,1.01
same,relative viability,[13]; first compound 0.4 µM,1.31
same,relative viability,[13]; first compound 1.265 µM,1.04
same,relative viability,[13]; first compound 4 µM,0.877
same,relative viability,[14]; first compound 0.04 µM,0.746
same,relative viability,[14]; first compound 0.1265 µM,0.706
same,relative viability,[14]; first compound 0.4 µM,0.749
same,relative viability,[14]; first compound 1.265 µM,0.746
same,relative viability,[14]; first compound 4 µM,0.764
same,relative viability,[15]; first compound 0.04 µM,0.985
same,relative viability,[15]; first compound 0.1265 µM,0.734
same,relative viability,[15]; first compound 0.4 µM,0.852
same,relative viability,[15]; first compound 1.265 µM,0.74
same,relative viability,[15]; first compound 4 µM,0.798
same,relative viability,[16]; first compound 0.04 µM,0.67
same,relative viability,[16]; first compound 0.1265 µM,0.625
same,relative viability,[16]; first compound 0.4 µM,0.679
same,relative viability,[16]; first compound 1.265 µM,0.625
same,relative viability,[16]; first compound 4 µM,0.606
same,relative viability,[17]; first compound 0.04 µM,0.448
same,relative viability,[17]; first compound 0.1265 µM,0.456
same,relative viability,[17]; first compound 0.4 µM,0.489
same,relative viability,[17]; first compound 4 µM,0.437
same,relative viability,[18]; first compound 0.04 µM,0.397
same,relative viability,[18]; first compound 0.1265 µM,0.452
same,relative viability,[18]; first compound 0.4 µM,0.461
same,relative viability,[18]; first compound 1.265 µM,0.365
same,relative viability,[18]; first compound 4 µM,0.471
same,relative viability,[19]; first compound 0.04 µM,0.64
same,relative viability,[19]; first compound 0.1265 µM,0.582
same,relative viability,[19]; first compound 0.4 µM,0.621
same,relative viability,[19]; first compound 1.265 µM,0.609
same,relative viability,[19]; first compound 4 µM,0.617
same,relative viability,[20]; first compound 0.04 µM,0.795
same,relative viability,[20]; first compound 0.1265 µM,0.723
same,relative viability,[20]; first compound 0.4 µM,0.781
same,relative viability,[20]; first compound 1.265 µM,0.684
same,relative viability,[20]; first compound 4 µM,0.696
same,relative viability,[21]; first compound 0.04 µM,0.955
same,relative viability,[21]; first compound 0.1265 µM,0.885
same,relative viability,[21]; first compound 0.4 µM,0.851
same,relative viability,[21]; first compound 1.265 µM,0.66
same,relative viability,[21]; first compound 4 µM,0.756
same,relative viability,[22]; first compound 0.04 µM,0.546
same,relative viability,[22]; first compound 0.1265 µM,0.62
same,relative viability,[22]; first compound 0.4 µM,0.51
same,relative viability,[22]; first compound 1.265 µM,0.561
same,relative viability,[22]; first compound 4 µM,0.553
same,relative viability,[23]; first compound 0.04 µM,0.403
same,relative viability,[23]; first compound 0.1265 µM,0.444
same,relative viability,[23]; first compound 0.4 µM,0.447
same,relative viability,[23]; first compound 1.265 µM,0.48
same,relative viability,[23]; first compound 4 µM,0.422
